Melting point data for 92 molecules are collected here from a melting point compilation (Tetko et al.; mined from patent text by program, amines drawn as free bases though some values may be those of a salt).

Molecules are shown by their SMILES.

`CC/C(=C(\c1ccc(I)cc1)c1ccc(OCCCCCS(=O)CCCC(F)(F)C(F)(F)F)cc1)c1ccccc1` (configuration not stated): the melting point (commonly the temperature of the solid-liquid transition) lay in the range of 85 to 87 °C.
With `O=C(Cc1ccccc1O)N1CCOCC1`, the melting point turned out to be 122 °C.
The same measure for `c1ccc(N2CCN(CCC3CCC(Nc4cccnc4)CC3)CC2)cc1` (configuration not stated): 159 to 160 °C; for `CCCC1CCc2cc(NC(=O)OCC)ccc2O1` (configuration not stated): 94 °C.
In turn, `CC(c1ccc(Cl)cc1)N1C(=O)CC(Br)C1=O` (configuration not stated) came in with a melting point of 96 °C.
The molecule `NC(=O)c1cccc(-c2cccc(O)c2)c1` gave a melting point of 148 to 151 °C.
Consider `c1ccc(COc2ccc(-c3ccc(OCc4ccccc4)cc3)cc2)cc1`, for which the melting point is 222 to 224 °C.
Turning to `Cc1nc(Cc2ccc([N+](=O)[O-])cc2)cs1`, the melting point was 118 to 119 °C.
As for `CCCc1c(O)c(C(C)=O)cc(Cl)c1OCCCCCOc1c(C(C)=O)ccc(OCC(=O)O)c1CCC`, the melting point fell in the range of 77 to 80 °C.
For the molecule `CSc1c2c3c(cccc3n1CO)C1C=C(C)CN(C)C1C2` (configuration not stated), the melting point was 133 to 135 °C.
On to `CC(=NOCC=Cc1ccccc1)C(=O)O`, for which the melting point was in the range of 89 to 91 °C.
For the molecule `Cc1oc(-c2ccccc2)nc1CCOc1ccc(CON=C(CCC(=O)O)c2ccccc2)cc1`, the melting point lay within 106 to 107 °C.
Under `Cc1c(O)cccc1C1=N[C@H]([C@H](O)CN2C[C@H]3CCCC[C@H]3C[C@H]2C(=O)NC(C)(C)C)CO1` stands 240 °C; under `CCCc1nc2c(N)nc3ccccc3c2n1CCCCN(OC)C(N)=O`, 179 to 181 °C.
The molecule `COc1cc2cc(C(=O)O)oc(=O)c2cc1OC` came in with a melting point of 295 to 297 °C.
Molecule `CCS(=O)(=O)Nc1nc(CN2CCN(C(c3ccccc3)c3ccccc3)CC2)cs1` gave a melting point of 159 to 160 °C.
`Cc1cc(C)c(Nc2nc(C)ccc2S(=O)(=O)c2ccc(O)cc2)c(C)c1` came in with a melting point of 226 to 228 °C.
`Cn1c(-c2ccccc2)nc2cnc3ccccc3c21` yielded a melting point of 168 to 170 °C.
The molecule `COc1cc(OC)cc(-c2ncoc2-c2cc(N)c(OC)cc2O)c1` had a melting point of 122 to 123 °C.
As to `COc1nc2c(Cl)c(Cl)c(Cl)c(Cl)c2n1COC(CO)CO`, the melting point was 192 °C.
On to `C[C@H](Nc1cc(Cl)ccc1[N+](=O)[O-])C(=O)O`, for which the melting point fell in the range of 167 to 169 °C.
As to `COc1nc2ccccc2c(=O)n1O`, the melting point was determined as 220 °C.
In turn, `OC1(CCc2ccc3[nH]cc(C4CCNCC4)c3c2)CCCC1` registered a melting point of 190 to 191 °C.
On to `COC(=O)C1=C(C)Nc2ccccc2SC1c1cccc([N+](=O)[O-])c1` (configuration not stated), for which the melting point was 140 to 142 °C.
The molecule `CC(C)Sc1nc(OS(C)(=O)=O)cs1` displayed a melting point of 83 to 85 °C.
On to `Cc1c(-c2ccccc2)c(N2CC[C@H](N(C)C)C2)c2oc(C(=O)N(C)CCc3ccccc3)nc2c1C#N`, for which the melting point was 138 to 141 °C.
Consider `CC(=O)OC1(Cc2ccncc2)C(=O)N(N2CCOCC2)c2ccccc21` (configuration not stated), for which the melting point was in the range of 178 to 180 °C.
In turn, `CCCCCCCc1c(C)[nH]c(C(=O)OCC)c1C` displayed a melting point of 47 to 49 °C.
`O=C(NCCC12CC3CC(CC(C3)C1)C2)c1ccccc1Cl` yielded a melting point of 125 to 127 °C.
`CC(C)c1nn(-c2ccc3ccccc3n2)c(-c2ccc(F)cc2)c1Br` came in with a melting point of 110 to 114 °C.
Under `COc1ccsc1CN=C(NC#N)Oc1ccccc1` stands 170 to 171 °C; under `Cc1cc(C)c2ncc(N)c(-c3ccccc3Cl)c2c1`, 152 to 154 °C; under `Cc1ccc(C(=O)[C@@](O)(C(=O)O)[C@H](O)C(=O)O)cc1`, 126 to 130 °C.
The molecule `CC(OCc1ccc(-c2ccc(Cl)cc2)cc1)(C(=O)O)C(F)(F)F` (configuration not stated) yielded a melting point of 135 to 136 °C.
`CC(=O)NN=C(C(=O)NN)c1ccccc1` gave a melting point of 177 °C.
Under `CCn1c(=O)c2[nH]c(-c3ccc(S(=O)(=O)O)cc3)nc2n(CC)c1=O` stands more than 360 °C; under `CC(C)CCc1c(-c2ccc(S(C)(=O)=O)c(F)c2)cnn(-c2ccc(F)c(Cl)c2)c1=O`, 102 to 104 °C; under `CCc1c(C)[nH]c2cc(OCOC)c(Cl)cc2c1=O`, 217 to 219 °C.
The molecule `O=C(Nc1cc(C(F)(F)F)ccc1O)Nc1ccccc1C(F)(F)F` showed a melting point of 158 to 159 °C.
For `CNC(C)=CC(=O)CS(=O)(=O)NC(C)C`, the melting point was 83 to 85 °C.
Take `CC(C)(O)c1cc(C(F)(F)F)cc(C(F)(F)F)c1`: the melting point fell in the range of 59 to 60 °C.
For the molecule `O=C(NS(=O)(=O)c1ccccc1)c1cccc(C[C@@H]2COc3ccc(OCc4nc5cc(F)ccc5s4)cc3[C@@H]2O)c1`, the melting point lay within 161 to 162 °C.
With `Cc1sc(-c2ccco2)nc1COc1ccc(CCl)cc1`, the melting point lay within 115 to 116 °C.
Under `CCCCC1(C(F)(F)F)NC(=O)Nc2ccc(F)cc21` (racemic) stands 198 °C; under `Cc1cccc(-c2nc(NC(=O)Nc3ccccc3)sc2-c2ccnc(C)n2)c1`, 141 to 142 °C.
`CCCCOC(=O)Cc1cc(O)c(C)cc1O` showed a melting point of 113 °C.
`O=C1NC(=O)C(Cc2ccc(OCc3nc4cccnc4n3-c3ccccc3)cc2)S1` (configuration not stated) yielded a melting point of 88 to 91 °C.
`CN(C)c1ccc(-c2cn[nH]c2N)cc1` came in with a melting point of 173 to 176 °C.
The molecule `COc1ccc(-n2nnc3c(-c4ccc(C(F)(F)F)cc4F)ncnc32)cc1` gave a melting point of 175 to 177 °C.
Consider `Nc1cccc(C(=O)NCc2ccccc2)c1`, for which the melting point was 95 to 100 °C.
Molecule `CCCCS(=O)(=O)Nc1ccc(CCCCOCCCCCCNCC(O)c2ccc(O)c(CO)c2)cc1` (configuration not stated) registered a melting point of 81 to 84 °C.
`CCCCOc1ccc(S(C)(=O)=O)cc1C(N)=O`: the melting point lay within 146 to 150 °C.
The molecule `Cc1c(Br)cccc1N1Cc2ccc(C(C)(C)C)cc2C1=O` gave a melting point of 120 to 122 °C.
Under `Cc1ccccc1C(=O)c1ccc(CC#N)n1C` stands 90 to 92.5 °C; under `CCOP(=O)(/C=C/c1cn(-c2ccccc2)nc1OCc1ccc(OCc2csc(N3CCOCC3)n2)c(OC)c1)OCC`, 93 to 94 °C; under `Fc1cccc(Cl)c1C1C=C(c2ccc(Cl)cc2)Nc2ncnn21` (configuration not stated), 213 to 215 °C.
In the case of `CCCn1c(=O)n2c(C)nnc2c2[nH]cnc21`, the melting point lay within 298 to 299 °C.
As for `Clc1ccc(OCc2ccccc2)nn1`, the melting point is 77 to 78 °C.
As to `COc1cc(Nc2nccc(-c3ccc(N4CCCCC4CO)nc3)n2)cc(OC)c1OC` (configuration not stated), the melting point amounted to 93 °C.
Molecule `CCCCCCCNC(=O)Nc1ccccc1C(=O)NC1CCN(C2c3ccccc3COc3ccc(Br)cc32)CC1` (configuration not stated) registered a melting point of 198 to 199 °C.
As for `COc1nccc2oc(S(N)(=O)=O)cc12`, the melting point fell in the range of 180 to 182 °C.
Regarding `CSc1sc(C(=O)N(C)C)c2c1-c1oncc1C(C)(C)C2`, the melting point is 113 to 115 °C.
The molecule `COc1cc(N)c(Cl)cc1Br` came in with a melting point of 40 to 41 °C.
`COc1cc(Nc2nc(-c3ccccc3)cs2)ccc1-c1cnco1` yielded a melting point of 193 to 195 °C.
Under `N#Cc1cc2c(c3ccc(=O)[nH]c13)OC(CN=[N+]=[N-])C2` (configuration not stated) stands 213 to 215 °C; under `CC12CCC3(CC1CCC1C2CCC2(C)C(N)C(O)CC12)OCCO3` (configuration not stated), 254 to 258 °C.
On to `CC(CNC1CC(C)(C)NC(C)(C)C1)C(=O)NC1CC(C)(C)NC(C)(C)C1` (configuration not stated), for which the melting point was determined as 116 °C.
`CC(NC(=O)c1cccc(I)c1)C(O)c1ccccc1` (configuration not stated) displayed a melting point of 139 to 140 °C.
Regarding `CCOC(=O)c1nc(-c2ccc(F)cc2)[nH]c1N=NN(C)C`, the melting point came to 177 °C.
Turning to `CCC(C)(C)OC(=O)OOC1CC(C)(C)N(C(C)=O)C(C)(C)C1`, the melting point lay within 70 to 73 °C.
The same measure for `CC(=O)Oc1c(Oc2ccccc2)c(Oc2ccccc2)c(OC(C)=O)c2ccccc12`: 173 to 174 °C; for `Clc1nc2ccccc2cc1CBr`: 125 °C.
`O=C1CC2Cc3ccccc3N2CCN1` (configuration not stated) yielded a melting point of 186 to 188 °C.
Turning to `C=Cn1cc(C(=O)OCC)c(=O)c2cc(F)c(Cl)cc21`, the melting point was in the range of 146 to 149 °C.
Under `COc1cc2c(c(-c3cccc(C)c3C)c1)OC(CN)C2` (configuration not stated) stands 129 to 130 °C; under `O=C(Nc1ccc(OC(F)(F)F)cc1)c1c(O)c2ccccc2oc1=O`, 194 to 195 °C.
For `COc1ccccc1OCC(O)CN1CCC(N2CCN(c3ccc(Cl)cc3)C2=O)CC1` (configuration not stated), the melting point lay in the range of 136 to 137 °C.
Under `COC(=O)C=Cc1cccc2c3c(n(C)c12)CCN(Cc1nc[nH]c1C)C3=O` stands 175 to 178 °C; under `O=C(Cc1ccccc1)Nc1cc(C(=O)O)cc(C(=O)O)c1`, more than 300 °C; under `CN(C(=O)c1ccc(Cn2ccc3ncnc-3c2)o1)C1CCCCC1`, 189 to 190 °C.
As to `O=C(CCNC(=O)[C@@H](O)Cc1ccccc1)OCc1ccccc1`, the melting point was in the range of 34 to 38 °C.
Molecule `O=C(O)CCCCO/N=C(/c1cccnc1)c1cccc(C(F)(F)F)c1` returned a melting point of 70.3 °C.
`CC(CCNC(=O)C(C#N)=Cc1cc(O)c(O)c(O)c1)NC(=O)C(C#N)=Cc1cc(O)c(O)c(O)c1` (configuration not stated): the melting point is more than 300 °C.
Take `CCCn1cc(C(=O)NCc2ccc(Cl)cc2)c(=O)c2cc(C#CCO)ccc21`: the melting point lay in the range of 183 to 184 °C.
Turning to `NC(=O)c1cncn1C(c1ccccc1)c1ccccc1`, the melting point came out at 153 °C.
For `Cc1ncnn1C[Si](C)(C)c1ccc(-c2ccccc2)cc1`, the melting point was in the range of 95 to 98 °C.
The molecule `O=C(O)C1Cc2ccsc2S1(=O)=O` (configuration not stated) returned a melting point of 189 to 193 °C.
Consider `CCOC(=O)C(=NOC)c1nc(N)cc(Cl)n1`, for which the melting point was 136 to 142 °C.
The molecule `Cc1ccc(C(=O)NCC(=O)N2CC2C#N)cc1` (configuration not stated) returned a melting point of 92 to 94 °C.
Take `Cn1c2c(c3cccc(-c4ccccc4)c31)C(=O)NCC2`: the melting point lay within 242 to 245 °C.
With `O=C(NN1CCCCC1)c1nc(-c2ccc(Cl)cc2Cl)n(-c2ccc(Cl)cc2)c1Br`, the melting point lay in the range of 182 to 183 °C.
For `O=C1NC(C(=O)NCCO[N+](=O)[O-])C(c2cccc3ccccc23)S1` (configuration not stated), the melting point lay within 151 to 153 °C.
